Values of other authors in patent US6534508B2, “Methods and compositions for treating infection using optically pure (S)-lomefloxacin” (priority 1991, dated 2003).
Converted amounts (≈) assume the structure as drawn.

Tested on: M. tuberculosis
Details: 11 strains resistant to conventional drug therapy; cited from earlier work

**Q.** Which MIC50 does the source give for `CCn1cc(C(=O)O)c(=O)c2cc(F)c(N3CCNC(C)C3)c(F)c21` (racemic) [LM, 1-ethyl-6,8-difluoro-1,4-dihydro-7-(3-methyl-lpiperazinyl)-4-oxo-3-quinolinecarboxylic acid] here?
**A.** 1.0 µg/mL (≈ 2.85 µM)

**Q.** And the MIC90?
**A.** 1.1 µg/mL (≈ 3.13 µM)
